In series [1] the test system is DACT1 and DACT2 promoters. The experiment in a line: Methylation specific PCR (MSP) of DACT promoters after 5-AzaC. The class given is cell-based, human. Conditions: HCT116 cells. From the text: (§1) A: Hierarchical clustering of Wnt inhibitors (upper) and Wnt/β-catenin target genes (lower) in human colorectal tumors (T) and matched normal mucosa (N). White signals in the upper panel indicate above-mean expression; white signals in the lower panel indicate below-mean expression. B: RT-PCR analysis of SFRP1 and DACT1, 2 and 3 from random-selected 8 pairs of human colorectal tumor and matched mucosa. C: Methylation status of SFRP1 and DACT3 in 8 tumors determined by methylation specific PCR (MSP) assay. M1, M2, M3 and M4 represent the examined PCR regions covering the entire CpG island of DACT3 promoter. D: RT-PCR analysis of SFRP1 and DACT1, 2 and 3 in a panel of colorectal cancer cell lines compared to the normal tissue. E: Methylation status of SFRP1 and DACT1, 2 and 3 in colorectal cancer cell lines. F: Determination of methylation status of CpG sites by sequencing of bisulphite-modified DNA from normal and colorectal cancer cell lines. Arrows indicate the transcription start sites. Open cycles represent unmethylated CpGs; closed cycles denote methylated CpGs. […]
The CpG island DNA methylation status was determined by PCR analysis after bisulfited modification and followed by methylation-specific PCR (MSP) and bisulfite genomic sequencing (BGS) (Yoshikawa, H., et al., Nat Genet (2001) 28, 29-35). […]

Series [2] relates to SFRP1, DACT1, DACT2, DACT3. The series is described as follows: RT-PCR analysis of SFRP1 and DACT1, 2 and 3 after 5-AzaC. The class given is cell-based, human. Conditions: HCT116 cells, 5-AzaC 5 μM for 3 days.
Source text: as §1, with “CpGs. G: MSP analysis of DACT1, 2 and 3 promoters in HCT116 cells untreated or treated with 5-AzaC and in HCT116-DNMT1/DNMT3b−/− (DKO) cells. H: RT-PCR analysis of SFRP1 and DACT1, 2 and 3 in HCT116 and DLD1 cells treated with 5-AzaC (5 μM) for 3 days and in DKO cells.” for “CpGs.”

Series [3] concerns histone modifications. The series is described as follows: Immunoblotting of bulk histone modifications in HT29 and SW480 cells. It counts as cell-based, human. As to the method: FIG. 5. Effects of combination of DZNep and TSA on DACT3 and histone modifications. A: DACT3 mRNA expression analysis using Illumina Beadarray in DLD1 cells treated with 5 μM DZNep, 5 μM 5-AzaC, 200 nM TSA or their combinations. The data shown represents Mean±SD of three independent experiments. B: Indicated colorectal cancer cell lines were treated with DZNep, TSA or both. RNA was harvested and subjected to array analysis (1: DCAT2, 2: DACT2, 3: DCAT3, 4: DKK4, 5: DKK3, 6: DKKL1, 7: DKK2, 8: DKK3, 9: DKK1, 10: SFRP4, 11: SFRP2, 12: SFRP5, 13: SFRP3, 14: SFRP1). Changes of expression of known Wnt/β-catenin antagonists are shown. C: Immunoblotting analysis of bulk histone modifications induced by DZNep, TSA or both in HT29 cells and SW480 cells. D: ChIP analysis of indicated the changes of histone marks at the DACT1 and DACT3 loci in HT29 cells untreated (white bars) or treated with DZNep and TSA (black bars). The values represent the normalized enrichments against the changes of a low background region before and after the drug treatment. The data represent Mean±SD of three independent experiments.
Human tissue samples were obtained from Singapore Tissue Network using protocols approved by institutional Review Board of National University of Singapore; informed consent was obtained from each individual who provided the tissues. The colorectal cancer cell lines and non-transformed cell lines used in this study were purchased from the American Type Culture Collection (Manassas, Va.). HCT116 cells with genetic disruption of DNMT1 (DNA methyltransferase 1) and DNMT3B (DNA methyltransferase 3B) (HCT116 DKO) were kindly provided by Dr. Bert Vogelstein (Johns Hopkins University, MD). For drug treatment, cells were seeded the day before the drug treatment. Cells were treated with 5 μM 3-Deazaneplanocin A (DZNep) (obtained from Dr. Victor E. Marquez at National Cancer Institute, USA) or 5 μM 5-aza-2′-deoxycytidine (5-AzaC; Sigma) for 72 hours and Trichostatin A (TSA; Cell Signaling) at 100-200 nM for 24 hours. […]

The test system of series [4] is DACT3, DVL2, β-catenin. The experiment in a line: Immunoblot analysis of DACT3, DVL2 and β-catenin in SW480 and DLD1 cells. The class given is cell-based, human. The note with it: DZNep 5 μM, TSA 100 nM. As to the method: FIG. 6. Combination of DZNep and TSA results in blockade of Wnt/β-catenin signaling and massive apoptosis in colorectal cancer cells. A: Immunoblot analysis of DACT3, DVL2, total β-catenin, and non-phosphorylated β-catenin (Active-β-catenin) in SW480 and DLD1 cells treated with DZNep (5 μM), TSA (100 nM) or both. B: Immunofluorescent images of DLD1 and SW480 cells treated with DZNep/TSA. β-catenin staining is red, nuclear staining is green (DRAQ5). C: Indicated colorectal cancer cell lines were treated as above; RNA was harvested and subjected to array analysis. Changes of expression of known Wnt/β-catenin target genes were shown using gene clustering program. […] D: Numeric values of data depicted in FIG. 6C (D+T=DZNep+TSA). E: DLD1 and HT29 cells were treated as in A, and cell death was determined by PI staining and FACS analysis. The data represent Mean±SD of three independent experiments. F: HT29 cells were treated as in A, and Caspase 3 activity was measured by FACS analysis. G: HT29 cells were treated as in A, followed by JC-1 staining and FACS analysis.
Human tissue samples were obtained from Singapore Tissue Network using protocols approved by institutional Review Board of National University of Singapore; informed consent was obtained from each individual who provided the tissues. The colorectal cancer cell lines and non-transformed cell lines used in this study were purchased from the American Type Culture Collection (Manassas, Va.). HCT116 cells with genetic disruption of DNMT1 (DNA methyltransferase 1) and DNMT3B (DNA methyltransferase 3B) (HCT116 DKO) were kindly provided by Dr. Bert Vogelstein (Johns Hopkins University, MD). For drug treatment, cells were seeded the day before the drug treatment. Cells were treated with 5 μM 3-Deazaneplanocin A (DZNep) (obtained from Dr. Victor E. Marquez at National Cancer Institute, USA) or 5 μM 5-aza-2′-deoxycytidine (5-AzaC; Sigma) for 72 hours and Trichostatin A (TSA; Cell Signaling) at 100-200 nM for 24 hours. For 5-AzaC treatment, the medium was replaced with freshly added 5-AzaC for every 24 h. For co-treatment of cells with DZNep and TSA, DZNep was added for 24 hours followed by TSA for additional 24 hours for gene expression analysis and 48 hours for FACS analysis.
Immunoblotting was performed as described previously (Tan et al., 2007, supra). The blots were probed with the following antibodies: anti-H3K27me3 (07-449), anti-H3K9me3 (07-442), anti-H3K9/K14 ac (06-599), anti-H3K4me3 (07-473) and anti-active β-catenin(05-665), were purchased from Upstate. Anti-H4K20me3 (ab9053) was from Abcam. Anti-β-catenin (6B3) and anti-H3 (3H1) were from Cell Signaling and anti-DVL2 (sc-8026) was from Santa Cruz. […]
On the technique in general: In western blotting, separated proteins are transferred to a membrane and probed.

The test system of series [5] is polycomb-repressive complex 2. Conditions: Tan et al., 2007; cited from earlier work.
Series [6] is described as follows: in vivo. Conditions: BALB/c nude, mouse, ip.
Series [7] is described as follows: Initial maximum tolerated dose (MTD) study of DZNep.
Series [8] is classed as in vivo. On the procedure:
FIG. 16. […]. The body weight was maintained at >80% in all groups. […].
For the HCT-116 study, nude mice that had received HCT-116 xenografts at day −7 were assigned into 4 groups of 7 animals each, and drug treatment was initiated on day 0 (see FIG. 1 for protocol outline): Group 1—vehicle control for both used compounds (Saline i.p. 3×/week in the morning, MC/Tween p.o. q.d. in the afternoon); Group 2—SAHA (200 mg/kg q.d. p.o. in the afternoon, plus the DZNep vehicle Saline 3/week i.p. in the morning); […]. The study was terminated on Day +14.
The study was conducted as using the protocol described in FIG. 15. The combination study was started using four groups of BALB/c nude mice bearing HCT-116 tumors (n=7 mice/group, initial mean tumor volume 6 days after inoculation: 91-107 mm^3). […]

Consider `Nc1ncn([C@H]2C[C@H](O)[C@@H](CO)O2)c(=O)n1` [5-AzaC, 5-aza-2′-deoxycytidine], for which, in series [1], the “methylation at the DACT1 and DACT2 promoters” value is reported as “decreased methylation”. The “expression of SFRP1, DACT1, DACT2 and DACT3” value in series [2] was “increased expression of SFRP1, DACT1 and DACT2, but not DACT3”.
On to `Nc1nccc2c1ncn2C1C=C(CO)C(O)C1O` (stereo not drawn) [DZNep, 5-(4-amino-1H-imidazo[4,5-c]pyridin-1-yl)-3-(hydroxymethyl)-3-cyclopentene-1,2-diol], for which, in series [3], the “H3K4me3 (bulk histone, Western blot)” value is given as “slight decrease”; the “H3K9me3 (bulk histone, Western blot)” value was “little effect”; the “H3K27me3 and H4K20me3 (bulk histone, Western blot)” value is “strong reduction”. In series [4], the DACT3 protein levels result is reported as “did not cause such changes” and the DVL2 levels entry was “did not cause such changes”. Also, the “effect on polycomb-repressive complex 2 and histone methylation” value in series [5] is “depletes components of the polycomb-repressive complex 2 and inhibits histone methylation”. The MTD at 5 day in series [6] was determined as 10 mg/kg. Besides, in series [7] (10 mg/kg group, day 2), the highest weight loss turned out to be 2.2%. In addition, in series [7] (15 mg/kg group, day 3, in the absence of significant weight loss), the deaths entry is on record as “Two of three mice died”.
As to `O=C(CCCCCCC(=O)Nc1ccccc1)NO` [SAHA, N′-hydroxy-N-phenyl-octanediamide], the “treatment-related death (TRD)” value in series [8] (day 10, body weight 82%, n=7/group) came to 1. For the same compound, the body weight in series [8] (day 14, DZNep 5 mg/kg i.p. 3×/week, SAHA 200 mg/kg p.o. q.d., HCT-116 tumour-bearing mice) is recorded as 96.8%.
Turning to `CC(/C=C/C(=O)NO)=C\[C@@H](C)C(=O)c1ccc(N(C)C)cc1` [TSA, 7-[R-(E,E)]-[4-(dimethylamino)phenyl]-N-hydroxy-4,6-dimethyl-7-oxo-2,4-heptadienamide, reference compound], in series [4], the DACT3 protein levels entry was “did not cause such changes” and the DVL2 levels entry was “did not cause such changes”.

(Values after US8969313B2, “Methods and compounds for preventing and treating a tumour” (Agency for Science, Technology and Research, priority 2007, dated 2015).)
